Experimental data taken from patent EP0840781B1, “METHODS AND DEVICES FOR THE REMOVAL OF PSORALENS FROM BLOOD PRODUCTS” (Cerus Corporation, priority 1995, dated 1996).
Where two headings read alike, the source gives them in different places.

What was measured:
[1] = test system: Duck Hepatitis B Virus (DHBV); assay: Inactivation of Duck Hepatitis B Virus in platelet concentrate, read out by PCR amplification; type: biochemical; conditions: 5 J/cm^2 UVA
Procedure: This example describes the protocol for inactivation of Duck Hepatitis B Virus (DHBV), a model for Hepatitis B Virus, using compounds described herein.
DHBV in duck yolk was added to platelet concentrate (PC) to a final concentration of 2 x 10^7 particles per mL and mixed by gentle rocking for ≥15 min. Psoralens S-70, S-59 and AMT were added to 3 mL aliquots of PC in a Teflon™ mini-bag at concentrations of […]. Samples, including controls without added psoralen, were irradiated with 5 J/cm^2 UVA, with mixing at 1 J/cm^2 increments. After irradiation, leukocytes and platelets were separated from virus by centrifugation. The supernatant containing DHBV was digested overnight with 50 µg/mL proteinase K in a buffer containing 0.5% sodium dodecyl sulphate, 20 mM Tris buffer, pH 8.0, and 5 mM EDTA at 55°C. Samples were extracted with phenolchloroform and chloroform, followed by ethanol precipitation. Purified DNA was then used in PCR amplification reactions with a starting input of 10^6 DHBV genomes from each sample. PCR amplicons were generated using primers pairs DCD03/DCD05 (127 bp), DCD03/DCD06 (327 bp) and DCD03/DCD07 (1072 bp). PCR was performed in a standard PCR buffer containing 0.2 mM each deoxyribonucleoside 5'-triphosphates (dATP, dGTP, dCTP, and dTTP), […] each primer, and 0.5 units Taq polymerase per […]. 30 cycles of amplification were performed with the following thermal profile: 95°C 30 sec, 60° C 30 sec, 72° C 1 min. The amplification was followed by a 7 min incubation at 72° C to yield full length products. [[…]-^32P] dCTP was added at an amount of […] per […] in order to detect and quantify the resulting products. Products were separated by electrophoresis on denaturing polyacrylamide slab gels and counted. The absence of signal in a given reaction was taken to indicate effective inactivation of DHBV.

[2] = test system: Salmonella typhimurium tester strains TA97a, TA98, TA100, TA102, TA1537 and TA1538
How it was run: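 Ames pre-incubation test in S. typhimurium TA97a, TA98, TA1537, TA1538 (frameshift) and TA100, TA102 (base-substitution), with or without 10% Aroclor 1254-induced rat liver S-9. Test solutions at 0–500 µg/mL pre-incubated 20 min at 37 °C, plated in histidine/biotin top agar; revertant colonies counted after 44 h at 37 °C.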

SMILES: Cc1oc2c(C)c3oc(=O)cc(C)c3cc2c1CN [AMT, 4'-Aminomethyl-4,5',8-trimethylpsoralen, reference compound]
- PCR amplification of the 1072 bp amplicon of DHBV [1]: a signal could be detected
- PCR amplification of the 1072 bp amplicon of DHBV ([1]; 70 and 100 mM in PC): inhibited PCR amplification
- revertant colonies, TA97a +S9 ([2]; 0.1 µg/plate): -23
- revertant colonies, TA97a -S9 ([2]; 0.1 µg/plate): 14
- revertant colonies, TA98 +S9 ([2]; 0.1 µg/plate): 1
- revertant colonies, TA98 -S9 ([2]; 0.1 µg/plate): 3
- revertant colonies, TA100 +S9 ([2]; 0.1 µg/plate): -16
- revertant colonies, TA100 -S9 ([2]; 0.1 µg/plate): -10
- revertant colonies, TA102 +S9 ([2]; 0.1 µg/plate): -20
- revertant colonies, TA102 -S9 ([2]; 0.1 µg/plate): 27
- revertant colonies, TA1537 +S9 ([2]; 0.1 µg/plate): 2
- revertant colonies, TA1537 -S9 ([2]; 0.1 µg/plate): 0
- revertant colonies, TA1538 +S9 ([2]; 0.1 µg/plate): 3
- revertant colonies, TA1538 -S9 ([2]; 0.1 µg/plate): 3
- revertant colonies, TA97a +S9 ([2]; 0.5 µg/plate): 32
- revertant colonies, TA97a -S9 ([2]; 0.5 µg/plate): 9
- revertant colonies, TA98 +S9 ([2]; 0.5 µg/plate): 3
- revertant colonies, TA98 -S9 ([2]; 0.5 µg/plate): 5
- revertant colonies, TA100 +S9 ([2]; 0.5 µg/plate): -12
- revertant colonies, TA100 -S9 ([2]; 0.5 µg/plate): 13
- revertant colonies, TA102 +S9 ([2]; 0.5 µg/plate): 5
- revertant colonies, TA102 -S9 ([2]; 0.5 µg/plate): 47
- revertant colonies, TA1537 +S9 ([2]; 0.5 µg/plate): 2
- revertant colonies, TA1537 -S9 ([2]; 0.5 µg/plate): 3
- revertant colonies, TA1538 +S9 ([2]; 0.5 µg/plate): 13
- revertant colonies, TA1538 -S9 ([2]; 0.5 µg/plate): 4
- revertant colonies, TA97a +S9 ([2]; 1 µg/plate): 32
- revertant colonies, TA97a -S9 ([2]; 1 µg/plate): 54
- revertant colonies, TA98 +S9 ([2]; 1 µg/plate): 21
- revertant colonies, TA98 -S9 ([2]; 1 µg/plate): 5
- revertant colonies, TA100 +S9 ([2]; 1 µg/plate): -19
- revertant colonies, TA100 -S9 ([2]; 1 µg/plate): 17
- revertant colonies, TA102 +S9 ([2]; 1 µg/plate): -17
- revertant colonies, TA102 -S9 ([2]; 1 µg/plate): 88
- revertant colonies, TA1537 +S9 ([2]; 1 µg/plate): 3
- revertant colonies, TA1537 -S9 ([2]; 1 µg/plate): 5
- revertant colonies, TA1538 +S9 ([2]; 1 µg/plate): 37
- revertant colonies, TA1538 -S9 ([2]; 1 µg/plate): 4
- revertant colonies, TA97a +S9 ([2]; 5 µg/plate): 149
- revertant colonies, TA97a -S9 ([2]; 5 µg/plate): 73
- revertant colonies, TA98 +S9 ([2]; 5 µg/plate): 232
- revertant colonies, TA98 -S9 ([2]; 5 µg/plate): 16
- revertant colonies, TA100 +S9 ([2]; 5 µg/plate): -6
- revertant colonies, TA100 -S9 ([2]; 5 µg/plate): 59
- revertant colonies, TA102 +S9 ([2]; 5 µg/plate): 51
- revertant colonies, TA102 -S9 ([2]; 5 µg/plate): 266
- revertant colonies, TA1537 +S9 ([2]; 5 µg/plate): 22
- revertant colonies, TA1537 -S9 ([2]; 5 µg/plate): 44
- revertant colonies, TA1538 +S9 ([2]; 5 µg/plate): 177
- revertant colonies, TA1538 -S9 ([2]; 5 µg/plate): 13
- revertant colonies, TA98 +S9 ([2]; 10 µg/plate): 403
- revertant colonies, TA98 -S9 ([2]; 10 µg/plate): 20
- revertant colonies, TA100 +S9 ([2]; 10 µg/plate): 17
- revertant colonies, TA100 -S9 ([2]; 10 µg/plate): 105
- revertant colonies, TA1537 +S9 ([2]; 10 µg/plate): 30
- revertant colonies, TA1537 -S9 ([2]; 10 µg/plate): 52
- revertant colonies, TA1538 +S9 ([2]; 10 µg/plate): 255
- revertant colonies, TA1538 -S9 ([2]; 10 µg/plate): 14
- revertant colonies, TA98 +S9 ([2]; 50 µg/plate): 620
- revertant colonies, TA98 -S9 ([2]; 50 µg/plate): 69
- revertant colonies, TA100 +S9 ([2]; 50 µg/plate): 52
- revertant colonies, TA100 -S9 ([2]; 50 µg/plate): 73
- revertant colonies, TA1537 +S9 ([2]; 50 µg/plate): 94
- revertant colonies, TA1537 -S9 ([2]; 50 µg/plate): 2688
- revertant colonies, TA98 +S9 ([2]; 100 µg/plate): 745
- revertant colonies, TA98 -S9 ([2]; 100 µg/plate): 114
- revertant colonies, TA100 +S9 ([2]; 100 µg/plate): 85
- revertant colonies, TA100 -S9 ([2]; 100 µg/plate): 75
- revertant colonies, TA1537 +S9 ([2]; 100 µg/plate): 686
- revertant colonies, TA1537 -S9 ([2]; 100 µg/plate): 2058
- revertant colonies, TA1537 +S9 ([2]; 100 µg/plate, Table 19 (B) experiment, background 7): 500
- revertant colonies, TA1537 -S9 ([2]; 100 µg/plate, Table 19 (B) experiment, background 8): 608
- revertant colonies, TA98 +S9 ([2]; 250 µg/plate): 933
- revertant colonies, TA98 -S9 ([2]; 250 µg/plate): 112
- revertant colonies, TA100 +S9 ([2]; 250 µg/plate): 89
- revertant colonies, TA100 -S9 ([2]; 250 µg/plate): 24
- revertant colonies, TA1537 +S9 ([2]; 250 µg/plate): 3738
- revertant colonies, TA1537 -S9 ([2]; 250 µg/plate): 434
- frameshift mutagenicity (Ames, summary) ([2]; two-fold or greater increase in revertants above background and dose dependent response): frameshift mutagenicity at between 5 and 10 µg/plate in TA97a and TA98, at 5µg/plate in TA1537 and at 1 µg/plate in TA1538
- base-substitution mutagenicity (Ames, summary) ([2]; two-fold or greater increase in revertants above background and dose dependent response, TA100, TA102): no significant base-substitution mutations
